From US8658794B2, “8-methyl-1-phenyl-imidazol[1,5-a]pyrazine compounds as Lck inhibitors and uses thereof” (Merck Sharp & Dohme B.V., priority 2010, dated 2014)

Target: T1, N-terminal His6-tagged recombinant full-length human Lck (Homo sapiens, UniProt P06239)
T1 construct: N-terminal His6-tagged recombinant full-length human Lck; His6 (N); purchased Millipore
Experiment: Lck IMAP assay
Type: biochemical
Settings: ATP 6 μM (KM,ATP), enzyme pre-incubated with compounds for 60 minutes, values given as bins
How it was run: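 Full-length His6-Lck at 0.1 U/ml was preincubated 60 min with compound, then run 120 min at room temperature with 100 nM fluorescein-p34cdc2 peptide and 6 μM ATP (KM) in pH 7.2 Tris buffer. Read-out by IMAP fluorescence polarization; pIC50 from ten-point √10 dilutions starting at 10^-6 M.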

T1 sequence (P06239 whole entry): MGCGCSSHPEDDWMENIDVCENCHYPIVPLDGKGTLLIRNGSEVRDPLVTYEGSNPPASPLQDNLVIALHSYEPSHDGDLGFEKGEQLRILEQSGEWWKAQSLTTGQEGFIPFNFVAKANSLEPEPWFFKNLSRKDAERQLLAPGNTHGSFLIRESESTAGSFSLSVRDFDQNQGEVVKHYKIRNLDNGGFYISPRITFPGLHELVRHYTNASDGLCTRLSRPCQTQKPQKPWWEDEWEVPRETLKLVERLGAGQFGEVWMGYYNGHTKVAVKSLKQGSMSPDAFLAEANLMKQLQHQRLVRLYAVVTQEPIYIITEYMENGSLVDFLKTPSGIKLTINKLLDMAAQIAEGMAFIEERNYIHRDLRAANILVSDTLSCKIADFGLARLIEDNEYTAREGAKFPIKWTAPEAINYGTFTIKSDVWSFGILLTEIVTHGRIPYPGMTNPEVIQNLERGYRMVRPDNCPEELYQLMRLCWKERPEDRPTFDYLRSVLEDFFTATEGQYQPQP

`COc1cc(-c2nc([C@H]3CC[C@H](N4CCN(C)CC4)CC3)n3ccnc(C)c23)ccc1NC(=O)c1cc2c(OC)cccc2n1C` [Example 7, 4-Methoxy-N-(2-methoxy-4-(8-methyl-3-((trans)-4-(4-methylpiperazin-1-yl)cyclohexyl)imidazo[1,5-a]pyrazin-1-yl)phenyl)-1-methyl-1H-indole-2-carboxamide] and `COc1cc(-c2nc([C@H]3CC[C@@H](N4CCOCC4)CC3)n3ccnc(C)c23)ccc1NC(=O)c1cc2c(OC)cccc2n1C` [Example 26d, 4-methoxy-N-(2-methoxy-4-(8-methyl-3-((cis)-4-morpholinocyclohexyl)imidazo[1,5-a]pyrazin-1-yl)phenyl)-1-methyl-1H-indole-2-carboxamide] cannot be ordered by IC50: at most 10 nM for the first, at most 10 nM for the second.

`COc1cc(-c2nc([C@H]3CC[C@H](OC(C)=O)CC3)n3ccnc(C)c23)ccc1NC(=O)c1cc2c(OC)cccc2n1C` [Example 5, (Trans)-4-(1-(3-methoxy-4-(4-methoxy-1-methyl-1H-indole-2-carboxamido)phenyl)-8-methylimidazo[1,5-a]pyrazin-3-yl)cyclohexyl acetate] and `COc1cc(-c2nc([C@H]3CC[C@H](CNC(C)=O)CC3)n3ccnc(C)c23)ccc1NC(=O)c1cc2c(OC)cccc2n1C` [Example 68, N-(4-(3-((trans)-4-(acetamidomethyl)cyclohexyl)-8-methylimidazo[1,5-a]pyrazin-1-yl)-2-methoxyphenyl)-4-methoxy-1-methyl-1H-indole-2-carboxamide] cannot be ordered by IC50: at most 10 nM for the first, at most 10 nM for the second.

`COc1cc(-c2nc([C@H]3CCN(C4CCOCC4)C3)n3ccnc(C)c23)ccc1NC(=O)c1cc2c(OC)cccc2n1C` [Example 36, (S)-4-Methoxy-N-(2-methoxy-4-(8-methyl-3-(1-(tetrahydro-2H-pyran-4-yl)pyrrolidin-3-yl)imidazo[1,5-a]pyrazin-1-yl)phenyl)-1-methyl-1H-indole-2-carboxamide] and `COc1cc(-c2nc([C@@H]3CCN(C4CCOCC4)C3)n3ccnc(C)c23)ccc1NC(=O)c1cc2c(OC)cccc2n1C` [Example 35, (R)-4-methoxy-N-(2-methoxy-4-(8-methyl-3-(1-(tetrahydro-2H-pyran-4-yl)pyrrolidin-3-yl)imidazo[1,5-a]pyrazin-1-yl)phenyl)-1-methyl-1H-indole-2-carboxamide] fall in the same range of IC50: 10 to 100 nM for the first, 10 to 100 nM for the second.

`COc1cc(-c2nc([C@H]3CC[C@H](N4CCOCC4)CC3)n3ccnc(C)c23)ccc1NC(=O)c1cc2ccccc2n1C` [Example 12, N-(2-methoxy-4-(8-methyl-3-((trans)-4-morpholinocyclohexyl)imidazo[1,5-a]pyrazin-1-yl)phenyl)-1-methyl-1H-indole-2-carboxamide] and `COc1cc(-c2nc([C@H]3CC[C@H](N4CCNCC4)CC3)n3ccnc(C)c23)ccc1NC(=O)c1cc2c(OC)cccc2n1C` [Example 54, 4-Methoxy-N-(2-methoxy-4-(8-methyl-3-((trans)-4-(piperazin-1-yl)cyclohexyl)imidazo[1,5-a]pyrazin-1-yl)phenyl)-1-methyl-1H-indole-2-carboxamide] cannot be ordered by IC50: at most 10 nM for the first, at most 10 nM for the second.

`COc1cc(-c2nc([C@H]3CC[C@H](O)CC3)n3ccnc(C)c23)ccc1NC(=O)c1cc2c(OC)cccc2n1C` [Example 6, N-(4-(3-((trans)-4-hydroxycyclohexyl)-8-methylimidazo[1,5-a]pyrazin-1-yl)-2-methoxyphenyl)-4-methoxy-1-methyl-1H-indole-2-carboxamide] and `COc1cc(-c2nc([C@H]3CC[C@H](CN(C)C)CC3)n3ccnc(C)c23)ccc1NC(=O)c1cc2c(OC)cccc2n1C` [Example 64, N-(4-(3-((trans)-4-((dimethylamino)methyl)cyclohexyl)-8-methylimidazo[1,5-a]pyrazin-1-yl)-2-methoxyphenyl)-4-methoxy-1-methyl-1H-indole-2-carboxamide] cannot be ordered by IC50: at most 10 nM for the first, at most 10 nM for the second.

`COc1cc2cc(C(=O)Nc3ccc(-c4nc([C@H]5CC[C@H](N6CCN(C)CC6)CC5)n5ccnc(C)c45)cc3OC)n(C)c2cn1` [Example 75, 5-Methoxy-N-(2-methoxy-4-(8-methyl-3-((trans)-4-(4-methylpiperazin-1-yl)cyclohexyl)imidazo[1,5-a]pyrazin-1-yl)phenyl)-1-methyl-1H-pyrrolo[2,3-c]pyridine-2-carboxamide] and `COc1cc(-c2nc([C@H]3CC[C@H](N4CCN(C)CC4)CC3)n3ccnc(C)c23)ccc1NC(=O)c1cc2cc(Cl)cnc2n1C` [Example 67, 5-Chloro-N-(2-methoxy-4-(8-methyl-3-((trans)-4-(4-methylpiperazin-1-yl)cyclohexyl)imidazo[1,5-a]pyrazin-1-yl)phenyl)-1-methyl-1H-pyrrolo[2,3-b]pyridine-2-carboxamide] cannot be ordered by IC50: at most 10 nM for the first, at most 10 nM for the second.

`CCC[C@H](C)OC(=O)Nc1ccc(-c2nc([C@H]3CC[C@H](CN)CC3)n3ccnc(C)c23)cc1OC` [Example 60, (S)-Pentan-2-yl 4-(3-((trans)-4-(aminomethyl)cyclohexyl)-8-methylimidazo[1,5-a]pyrazin-1-yl)-2-methoxyphenylcarbamate] and `CCC[C@H](C)OC(=O)Nc1ccc(-c2nc([C@H]3CC[C@H](CN(C)C)CC3)n3ccnc(C)c23)cc1OC` [Example 65, (S)-Pentan-2-yl 4-(3-((trans)-4-((dimethylamino)methyl)cyclohexyl)-8-methylimidazo[1,5-a]pyrazin-1-yl)-2-methoxyphenylcarbamate] cannot be ordered by IC50: at most 10 nM for the first, at most 10 nM for the second.

`COc1cc(-c2nc(C3CCN(C(=O)CN(C)C)CC3)n3ccnc(C)c23)ccc1NC(=O)c1cc2ccccc2n1C` [Example 19, N-(4-(3-(1-(2-(dimethylamino)acetyl)piperidin-4-yl)-8-methylimidazo[1,5-a]pyrazin-1-yl)-2-methoxyphenyl)-1-methyl-1H-indole-2-carboxamide] and `COc1cc(-c2nc(C3CCN(C)CC3)n3ccnc(C)c23)ccc1NC(=O)c1cc2c(F)cccc2n1C` [Example 45, 4-fluoro-N-(2-methoxy-4-(8-methyl-3-(1-methylpiperidin-4-yl)imidazo[1,5-a]pyrazin-1-yl)phenyl)-1-methyl-1H-indole-2-carboxamide] cannot be ordered by IC50: at most 10 nM for the first, 10 to 100 nM for the second.

`COc1cc(-c2nc(N3CCN(C(C)=O)CC3)n3ccnc(C)c23)ccc1NC(=O)c1cc2c(OC)cccc2n1C` [Example 33g, N-(4-(3-(4-acetylpiperazin-1-yl)-8-methylimidazo[1,5-a]pyrazin-1-yl)-2-methoxyphenyl)-4-methoxy-1-methyl-1H-indole-2-carboxamide] and `COc1cc(-c2nc(CO)n3ccnc(C)c23)ccc1NC(=O)c1cc2c(OC)cccc2n1C` [Example 14, N-(4-(3-(hydroxymethyl)-8-methylimidazo[1,5-a]pyrazin-1-yl)-2-methoxyphenyl)-4-methoxy-1-methyl-1H-indole-2-carboxamide] fall in the same range of IC50: 10 to 100 nM for the first, 10 to 100 nM for the second.

`CCC[C@H](C)OC(=O)Nc1ccc(-c2nc([C@H]3CC[C@@H](N4CCN(C(C)=O)CC4)CC3)n3ccnc(C)c23)cc1OC` [Example 26f, (S)-pentan-2-yl 4-(3-((cis)-4-(4-acetylpiperazin-1-yl)cyclohexyl)-8-methylimidazo[1,5-a]pyrazin-1-yl)-2-methoxyphenylcarbamate] and `CCC[C@H](C)OC(=O)Nc1ccc(-c2nc([C@H]3CC[C@H](N4CCN(C(C)=O)CC4)CC3)n3ccnc(C)c23)cc1OC` [Example 33d, (S)-pentan-2-yl 4-(3-((trans)-4-(4-acetylpiperazin-1-yl)cyclohexyl)-8-methylimidazo[1,5-a]pyrazin-1-yl)-2-methoxyphenylcarbamate] cannot be ordered by IC50: at most 10 nM for the first, at most 10 nM for the second.

`COc1cc(-c2nc(C3CC(=O)N(C)C3)n3ccnc(C)c23)ccc1NC(=O)c1cc2c(OC)cccc2n1C` (stereo not drawn) [Example 73, 4-Methoxy-N-(2-methoxy-4-(8-methyl-3-(1-methyl-5-oxopyrrolidin-3-yl)imidazo[1,5-a]pyrazin-1-yl)phenyl)-1-methyl-1H-indole-2-carboxamide] and `COc1cc(-c2nc(C3CCN(C)C(=O)C3)n3ccnc(C)c23)ccc1NC(=O)c1cc2c(OC)cccc2n1C` (stereo not drawn) [Example 38, 4-Methoxy-N-(2-methoxy-4-(8-methyl-3-(1-methyl-2-oxopiperidin-4-yl)imidazo[1,5-a]pyrazin-1-yl)phenyl)-1-methyl-1H-indole-2-carboxamide] cannot be ordered by IC50: at most 10 nM for the first, at most 10 nM for the second.

`CCC[C@H](C)OC(=O)Nc1ccc(-c2nc([C@H]3CC[C@H](CNC(C)=O)CC3)n3ccnc(C)c23)cc1OC` [Example 69, (S)-pentan-2-yl 4-(3-((trans)-4-(acetamidomethyl)cyclohexyl)-8-methylimidazo[1,5-a]pyrazin-1-yl)-2-methoxyphenylcarbamate] and `CCC[C@H](C)OC(=O)Nc1ccc(-c2nc([C@H]3CC[C@@H](N4CCN(C)CC4)CC3)n3ccnc(C)c23)cc1OC` [Example 33f, (S)-pentan-2-yl 2-methoxy-4-(8-methyl-3-((cis)-4-(4-methylpiperazin-1-yl)cyclohexyl)imidazo[1,5-a]pyrazin-1-yl)phenylcarbamate] cannot be ordered by IC50: at most 10 nM for the first, at most 10 nM for the second.

`COc1cc(-c2nc([C@@H]3CCN(CC(=O)N(C)C)C3)n3ccnc(C)c23)ccc1NC(=O)c1cc2c(OC)cccc2n1C` [Example 52, (R)—N-(4-(3-(1-(2-(dimethylamino)-2-oxoethyl)pyrrolidin-3-yl)-8-methylimidazo[1,5-a]pyrazin-1-yl)-2-methoxyphenyl)-4-methoxy-1-methyl-1H-indole-2-carboxamide] and `COc1ccc2c(C(=O)Nc3ccc(-c4nc([C@H]5CC[C@H](N6CCN(C)CC6)CC5)n5ccnc(C)c45)cc3OC)n[nH]c2c1` [Example 66, 6-Methoxy-N-(2-methoxy-4-(8-methyl-3-((trans)-4-(4-methylpiperazin-1-yl)cyclohexyl)imidazo[1,5-a]pyrazin-1-yl)phenyl)-1H-indazole-3-carboxamide] cannot be ordered by IC50: 10 to 100 nM for the first, at most 10 nM for the second.

Work on `CCC[C@H](C)OC(=O)Nc1ccc(-c2nc(C3CCC(N4CCN(C)CC4)C3)n3ccnc(C)c23)cc1OC` (mixture of isomers) [Example 28, (S)-Pentan-2-yl 2-methoxy-4-(8-methyl-3-(3-(4-methylpiperazin-1-yl)cyclopentyl)imidazo[1,5-a]pyrazin-1-yl)phenylcarbamate] yielded an IC50 of at most 10 nM.
